Values joined by “and” are separate entries in the source; they are usually repeats but may differ in a detail not shown here. Equal values may be shown once.
What was measured:
[1] = system: human Lung carcinoma (A549) cells; assay: SRB cytotoxic assay, A549; format: cell-based; conditions: single dose 100 µg/mL, 48 h, read-out: %Inhibition at100 µg/mL A549
Procedure: All the prepared compounds were screened at a concentration of 100 µg/mL against six different human cell lines: human laryngeal carcinoma (HEP2), human colorectal carcinoma (HCT116), human breast carcinoma (MCF7), human Lung carcinoma (A549), human liver carcinoma (HEPG2), and normal African Green monkey kidney cell line (VERO). Doxorubicin was used as a positive control for comparison purposes.
The human laryngeal carcinoma (HEP2), colorectal carcinoma (HCT116), breast carcinoma (MCF7), Lung carcinoma (A549), liver carcinoma (HEPG2), and normal African Green monkey kidney cell line (VERO) were purchased from American Tissue Culture Collection (Rockville, MD, USA). The cells were treated for 48 h with a single dose (100 µg/mL) of all the tested chalcones. […] In brief, the cells were seeded in a 96-well microtiter plate at a concentration of 5×10^3 cells/well in 100 µL fresh RPMI-1640 medium and left to attach to the plates for 24 h. Then, cells were incubated with 100 μL of different concentrations (50, 25, 12.5, 6.25, and 0.0 µg/mL) of 5c in triplicate at 37 °C for 48 h. After that, the cells were fixed with 10 µL cold 100% Trichloroacetic acid (TCA) for 1h at 4 °C. The wells were then washed 1 time with distilled water using (automatic Tecan washer, Germany) and stained for 30 min at room temperature with 50 µL 0.4% SRB dissolved in 1% acetic acid. The plates were air-dried and the dye was solubilized with 100 µl/well of 1M tris base (pH 10.5) for 5 min. The optical density (O.D.) of each well was measured spectrophotometrically at 570 nm with an ELISA microplate reader (Sunrise Tecan reader, Germany) with automatic shaking for 30 seconds before reading. The mean background absorbance was subtracted automatically and mean values for each drug concentration were calculated. The percentage of cell survival was calculated as follows: Survival fraction= O.D. (treated cells)/ O.D. (control cells) (Bhat et al. [2023]).

[2] = system: IL-1B gene; assay: Real-time PCR, IL-1B gene expression; format: cell-based, human; conditions: relative to untreated control (1)
Procedure: The expression level of the following six genes (Ki-67, Survivin, Interleukin-1 beta (IL-1B), Interleukin-6 (IL-6), Cyclooxygenase-2 (COX-2) and protein kinase B (AKT1)) was determined in MCF7 and HEP2 treated with the IC50 of compound 5c. The untreated cells were used as a negative control for comparison purposes. […] Ki-67 is a popular proliferation marker for human tumor cells. […] Survivin is an inhibitor of apoptotic protein (IAP) family member, which is essential for cell division. The lowering of the expression of survivin inhibited tumor development, triggered apoptosis, and made tumor cells more susceptible to radiation and chemotherapy (Albadari and Li [2023]). […] IL-1B is a pleiotropic mediator of inflammation, which is produced in response to a variety of stressors (Aarreberg et al. [2019]). […] IL-6 is a pro-inflammatory cytokine that plays a significant role in the proliferation and differentiation of human cells. It promotes the production of numerous proteins involved in acute inflammation (Uciechowski and Dempke [2020]). […]
The expression level of the following six genes (Ki-67, survivin, AKT1, IL-6, COX2, and IL-1B) was examined using real-time polymerase chain reaction (qPCR) (Mohamed et al. [2023a]). […] The cycle threshold (Ct) was determined automatically. […]

[3] = system: MCF7 cells; assay: Flow cytometric analysis of cell cycle, MCF7; format: cell-based, human; conditions: MCF7, IC50 of 5c, 48 h
Procedure: (§1) In DMEM-supplemented media, cells were plated in 12-well plates at a cell density of 6–8×10^5 per well. After twenty-four hours, cells were cultured for an additional 48 hours with the IC50 of the target compound. The untreated cells were used as a negative control. After 48 h of incubation, the treated cells were centrifuged at 1,200 rpm and 4 °C for 10 min. After discarding the supernatant, the wells were then given a single phosphate-buffered saline (PBS) wash and then centrifuged for 10 min at 1,200 rpm. Trypsin/EDTA was used to collect the cells, and after one PBS wash, they were resuspended in 0.5 mL of 0.05% Triton X-100 for 10 min at room temperature. Each cell suspension was stained by being given 1 mL of 50 µg/mL propidium iodide (PI) to be left at room temperature in the darkness for 20 minutes. The analysis of the cell cycle was done by a flow cytometer (Becton Dickenson (BD) FACSCalibur, USA) (Michalkova et al. [2022]).

[4] = system: HEP2 cells; assay: Flow cytometric analysis of cell cycle, HEP2; format: cell-based, human; conditions: HEP2, IC50 of 5c, 48 h
Procedure: In the G0-G1 stage, the percentage of 5c-treated cells declined to 55.4% as opposed to 57.6% of untreated control cells. It was found in a previous work that lutein-induced G2/M phase arrest in A549 and PC-9 cells (Di et al. [2019]).
as §1

SMILES: COc1ccc(NC(=O)COc2ccc(C=CC(=O)c3cccs3)cc2)cc1 [Compound 5c, N-(4-Methoxyphenyl)-2-(4-(3-oxo-3-(thiophen-2-yl)prop-1-en-1-yl)phenoxy)acetamide]
- inhibition at 100 µg/mL [1]: 65 ± 2.1%
- IL-1B expression folding ([2]; HEP2 cells treated with IC50 of 5c): 0.461±0.069 fold
- IL-1B expression folding ([2]; MCF7 cells treated with IC50 of 5c): 0.4008±0.116 fold
- Percentage of DNA in G2-M phase ([3]; untreated control 8.95±0.38): 2.8% and 2.855±0.07778%
- Percentage of DNA in S phase ([3]; untreated control 45.405±1.97283): 42.84% and 42.845±0.4596%
- Percentage of DNA in G0-G1 phase ([3]; untreated control 45.585±1.548): 54.3% and 54.3±0.5374%
- Percentage of DNA in G2-M phase ([4]; untreated control 2.205±0.10607): 3.56% and 3.565±0.1485%
- Percentage of DNA in S phase ([4]; untreated control 40.095±0.36062): 40.96% and 40.96±0.08485%
- Percentage of DNA in G0-G1 phase ([4]; untreated control 57.67±0.21213): 55.4% and 55.475±0.233%

— publication PMC11582173, “Synthesis, cytotoxicity, anti-inflammatory, anti-metastatic and anti-oxidant activities of novel chalcones incorporating 2-phenoxy-N-arylacetamide and thiophene moieties: induction of apoptosis in MCF7 and HEP2 cells” (Naunyn-Schmiedeberg's Archives of Pharmacology, 2024)
